Key:
[1] = Therapeutic index, ratio of TC50 for human PBMC to IC50 for HIV-1 Bal infected in human PBMC
[2] = Cytotoxicity against human PBMC assessed as reduction in cell viability by MTS assay; assay type: cell-based; details: read-out: TC50 (the source's name)
[3] = (§1) Inhibition of HIV1 NL4-3 reverse transcriptase assessed as reduction in [3H]dTTP incorporation using poly(rA)/oligo(dT) as template/primer after 1 hr by microbeta scintillation counting analysis; parameters: species or system Human immunodeficiency virus 1
[4] = tested on: Human immunodeficiency virus 1; experiment: as §1
PBMC = experiment: Antiviral activity against HIV-1 Bal infected in human PBMC by MTS assay; assay type: functional, cell-based
[5] = tested on: Human immunodeficiency virus 1; experiment: Antiviral activity against HIV-1 NL4-3 harboring reverse transcriptase K103N mutant infected in human MAGI-CCR5 cells assessed as reduction in viral infection after 48 hrs by fluorescence based beta-galactosidase reporter gene assay; assay type: functional, cell-based; details: Human immunodeficiency virus 1, NL4-3, MAGI-CCR5, 48 h
[6] = Cytotoxicity against human MAGI-CCR5 cells assessed as reduction in cell viability after 48 hrs by MTS assay; assay type: cell-based; details: read-out: TC50
[7] = tested on: Human immunodeficiency virus 1; experiment: microbe, parasite or virus in culture; details: Human immunodeficiency virus 1, NL4-3, MAGI-CCR5, 48 h
Description: Antiviral activity against HIV-1 NL4-3 harboring reverse transcriptase E138A mutant infected in human MAGI-CCR5 cells assessed as reduction in viral infection after 48 hrs by fluorescence based beta-galactosidase reporter gene assay

[8] = tested on: Human immunodeficiency virus 1; assay type: functional, cell-based; details: Human immunodeficiency virus 1, NL4-3, MAGI-CCR5, 48 h
[9] = tested on: Human immunodeficiency virus 1; experiment: microbe, parasite or virus in culture; details: Human immunodeficiency virus 1, NL4-3, MAGI-CCR5, 48 h; remark: listed apart in the source
Description: Antiviral activity against wild type HIV-1 NL4-3 infected in human MAGI-CCR5 cells assessed as reduction in viral infection after 48 hrs by fluorescence based beta-galactosidase reporter gene assay

[10] = Metabolic stability in rat plasma assessed as compound remaining at 100 uM after 1 hr by LC/MS analysis; assay type: ADME, cell-free; details: read-out: Stability
[11] = Metabolic stability in rat liver microsomes assessed as compound remaining at 4 uM preincubated for 5 mins followed by NADPH addition measured after 60 mins by LC/MS analysis; assay type: ADME, microsome; details: read-out: Stability
[12] = tested on: Human immunodeficiency virus 1; experiment: Antiviral activity against HIV-1 Bal infected in human MAGI-CCR5 cells assessed as reduction in viral infection after 48 hrs by fluorescence based beta-galactosidase reporter gene assay; assay type: functional, cell-based; details: for IC50 / IC90: Human immunodeficiency virus 1, Bal, MAGI-CCR5, 48 h
[13] = Therapeutic index, ratio of TC50 for human MAGI-CCR5 cells to IC50 for HIV-1 NL4-3 harboring reverse transcriptase K103N mutant infected in MAGI-CCR5 cells
[14] = Therapeutic index, ratio of TC50 for human MAGI-CCR5 cells to IC50 for HIV-1 NL4-3 infected in MAGI-CCR5 cells
[15] = tested on: Human immunodeficiency virus 1; assay type: functional, cell-based; details: Human immunodeficiency virus 1, A17, MAGI-CCR5, 48 h
[16] = Therapeutic index, ratio of TC50 for human MAGI-CCR5 cells to IC50 for HIV-1 Bal infected in MAGI-CCR5 cells
[17] = Therapeutic index, ratio of TC50 for human MAGI-CCR5 cells to IC50 for HIV-1 NL4-3 harboring reverse transcriptase E138A mutant infected in MAGI-CCR5 cells

| SMILES | TI [1] | CC50 [2] | IC50 [3] | IC50 (PBMC) | IC90 (PBMC) | IC50 [5] | IC90 [5] | CC50 at 48 h [6] | IC90 [7] | IC50 [8] | IC90 [8] | IC90 [9] | Activity [12] | IC50 [12] | IC90 [12] | IC50 [15] | IC50 [9] | also measured |
| --- | --- | --- | --- | --- | --- | --- | --- | --- | --- | --- | --- | --- | --- | --- | --- | --- | --- | --- |
| CC1=C(c2nc(-c3ccc(C#N)cc3)cs2)[C@@H](c2cccc(O)c2)NC(=O)N1 | >909 | > 100000 nM | 600 nM | 110 nM | 420 nM | – | – | – | – | – | – | – | – | – | – | – | – | inhibition [4]: Dose-dependent effect |
| Cc1cn([C@H]2C[C@H](N=[N+]=[N-])[C@@H](CO)O2)c(=O)[nH]c1=O [ZIDOVUDINE] | – | – | – | – | – | 10 nM | 210 nM | > 1000 nM | > 1000 nM | 9 nM | 100 nM | 350 nM | – | – | – | – | – | – |
| CC1=C(c2nc(-c3ccc(C#N)cc3)cs2)C(c2cc3ccccc3n2C)NC(=O)N1 (stereo not drawn) | 91 | > 100000 nM | – | 1100 nM | 3200 nM | 3840 nM | > 100000 nM | > 100000 nM | > 100000 nM | > 100000 nM | > 100000 nM | 5000 to 8390 nM | Dose-dependent effect | 700 nM | 3700 nM | > 100000 nM | 520 to 900 nM | remaining at 1 h, 100 µM [10]: 95.6%; remaining at 1 h, 4 µM [11]: 62.9%; TI [13]: >26.04; TI [14]: >=111 - 192; IC50 [7]: 43500 nM; TI [16]: 143; TI [17]: >2.3 |
| CC1=C(c2nc(-c3ccc(C#N)cc3)cs2)[C@H](c2cccc(O)c2)NC(=O)N1 | >4.5 | – | > 10000 nM | 22000 nM | 77000 nM | – | – | – | – | – | – | – | – | – | – | – | – | – |
| Cc1ccnc2c1NC(=O)c1cccnc1N2C1CC1 [NEVIRAPINE] | – | – | – | 40 to 60 nM | 180 to 190 nM | 30 nM | 350 nM | – | > 10000 nM | > 10000 nM | > 10000 nM | 540 to 600 nM | Dose-dependent effect | 40 nM | 30 to 420 nM | > 10000 nM | 40 to 70 nM | – |
